Laboratory results: US20200129524A1, “PERSONALIZED CONTRACEPTIVE FORMULATIONS” (Agile Therapeutics, Inc., priority 2017, published 2020)

Experiments:
healthy women [1] = experiment: Clinical trial of contraceptive effectiveness of a transdermal patch (% of women pregnant by weight or BMI category); assay type: in vivo; settings: 120 μg/d LNG + 30 μg/d EE patch, 13 cycles (one year)
Text: To obtain the required data that would allow us to determine the personalized dosage of progestin required for each woman, we performed a clinical trial which is shown below as Example 1. When administered 120 micrograms per day of levonorgestrel (LNG), the number of women in each body weight category and the percent of the women in each category that became pregnant over a period of one year is shown in Table 1 and graphically depicted in FIG. 1.
In a clinical trial, 2032 healthy women, aged 18 and over, were enrolled in 102 investigative sites in the US. It was an open label, 13 cycle trial (one year) to study the effectiveness of a transdermal patch delivering 120 μg per day of levonorgestrel (LNG) and 30 μg per day of ethinyl estradiol (EE). The treatment regimen for each cycle was three consecutive 7-day patches (21 days) followed by one patch-free week.
The women enrolled in the different weight categories (in pounds) are shown in the second column of Table 1.
The percentage of women that became pregnant over the 13 cycle period is shown in column 3 of Table 1. A graph of the percentage of women that became pregnant in each weight category is also graphically illustrated in FIG. 1.
The same analysis was performed using the BMI of the women enrolled in the trial.

healthy women [2] = experiment: Statistical (quadratic regression) analysis of LNG required dose with confidence limits; assay type: in vivo; design: dose required: unit: μg; settings: for Daily LNG Required Dose, 1.5% Pregnancy Rate Dose / Daily LNG Required Dose, 3% Pregnancy Rate Dose: EE 30 μg; for level of LNG equivalent: women with body weight of over 200 pounds, 30 μg EE per day
Text: Z represents the applicable coefficient to obtain a desired level of confidence (e.g. a coefficient of two would imply a 95.5% confidence level and a coefficient of three would imply a 99.7% confidence level). The other variables are the same as indicated above. For example, the dose required for a 150 pound person assuming a 95% confidence level would be determined as follows: […]
Table 7 and FIG. 6 summarize the maximum and the minimum dose of levonorgestrel levels required at the 95.5% level of confidence (two standard deviation units, i.e., two σ) for varying woman BMI categories.
Table 7a and FIG. 6a summarize the maximum and the minimum dose of levonorgestrel levels required at the 68% level of confidence (one standard deviation unit, i.e., one σ) for varying woman BMI categories.
A review of the data points associated with Tables 4 and 5 reveal again a relationship which could be linear or quadratic. Again, since the data has substantial variability in the individual points a statistical analysis of the data was performed. The applicable linear and quadratic equations had correlation coefficients R2 of 0.73 for both 1.5 and 3% pregnancy rates. The standard error for the 1.5% pregnancy rate (linear VS quadratic) as well as the 3% pregnancy rate (linear versus quadratic) was within 10 micrograms of each other. […] We chose to draw FIGS. 4a and 4b based on the quadratic equations, so as to have an easier comparison to the corresponding body weight lines in FIGS. 3a and 3b.
As indicated above the implied equation is shown below, where the symbols Y and X are the same as presented above. The correlation coefficient R2 is 0.73 and the standard error 94.3 micrograms.
The correlation coefficient, R2 is 0.73 and the standard error 46.8. The above equation can be modified to provide a 95.5% confidence level as follows
Table 7 and FIG. 6 summarize the maximum and minimum dose of levonorgestrel levels required at the 95% confidence for varying woman BMI categories as determined from the modified equations described above.
Therefore another practical approach is to treat all women with body weight of over 200 pounds with the same formulations. For example for women co-administered 30 μg EE per day, the level of LNG equivalent would be 350 μg per day (for the 1.5% pregnancy level), and 200 μg per day (for the 3% pregnancy level). An intermediate level of 260 μg per day can also be prepared.

[3] = cited from earlier work
[4] = BMI >17.5 < 22.5, 68% confidence level, 30 μg EE
[5] = BMI >17.5 < 22.5, 95.5% confidence level, 30 μg EE
[6] = BMI >22.5 < 27.5, 68% confidence level, 30 μg EE
[7] = BMI >22.5 < 27.5, 95.5% confidence level, 30 μg EE
[8] = BMI >27.5 < 32.5, 68% confidence level, 30 μg EE
[9] = BMI >27.5 < 32.5, 95.5% confidence level, 30 μg EE
[10] = BMI >32.5 < 37.5, 68% confidence level, 30 μg EE
[11] = BMI >32.5 < 37.5, 95.5% confidence level, 30 μg EE
[12] = BMI >37.5 < 42.5, 68% confidence level, 30 μg EE
[13] = BMI >37.5 < 42.5, 95.5% confidence level, 30 μg EE
[14] = BMI >42.5 < 47.5, 68% confidence level, 30 μg EE
[15] = BMI >42.5 < 47.5, 95.5% confidence level, 30 μg EE
[16] = BMI >47.5 < 52.5, 68% confidence level, 30 μg EE
[17] = BMI >47.5 < 52.5, 95.5% confidence level, 30 μg EE
[18] = weight 90 to ≤120, 68% confidence level
[19] = weight 90 to ≤120, 95.5% confidence level
[20] = weight 120 to ≤150, 68% confidence level
[21] = weight 120 to ≤150, 95.5% confidence level
[22] = weight 150 to ≤180, 68% confidence level
[23] = weight 150 to ≤180, 95.5% confidence level
[24] = weight 180 to ≤210, 68% confidence level
[25] = weight 180 to ≤210, 95.5% confidence level
[26] = weight 210 to ≤240, 68% confidence level
[27] = weight 210 to ≤240, 95.5% confidence level
[28] = weight 240 to ≤270, 68% confidence level
[29] = weight 240 to ≤270, 95.5% confidence level
[30] = weight 270+, 68% confidence level
[31] = weight 270+, 95.5% confidence level

C#C[C@]1(O)CC[C@H]2[C@@H]3CCC4=CC(=O)CC[C@@H]4[C@H]3CC[C@@]21CC [LNG, levonorgestrel]
% of pregnancies (healthy women [1]; weight category >90 but ≤ 120 pounds): 1.5% | % of pregnancies (healthy women [1]; weight category >120 but ≤ 150 pounds): 2.66% | dose required (healthy women [2]; 25 BMI woman, 95% confidence level, 3% pregnancy rate): 26 | LNG daily dosage, high boundary value (healthy women [2]; 27.5 BMI woman, 95.5% confidence, pregnancy rate of 1.5%): 430 microgram | daily dose, low boundary value (healthy women [2]; 150 pound person, 95.5% confidence, 3 pregnancies per 100 woman years, 30 μg EE): 62.4 µg | daily dose, high boundary value (healthy women [2]; 150 pound person, 95.5% confidence, pregnancy rate of 1.5%, 30 μg EE): 302 µg | LNG Daily Required Dose, 1.5% Pregnancy Rate (healthy women [2]; [4]): 283 µg | LNG Daily Required Dose, 3% Pregnancy Rate (healthy women [2]; [4]): 47 µg | LNG Daily Required Dose, 1.5% Pregnancy Rate (healthy women [2]; [5]): 378 µg | LNG Daily Required Dose, 3% Pregnancy Rate (healthy women [2]; [5]): 0.1 µg | LNG Daily Required Dose, 1.5% Pregnancy Rate (healthy women [2]; [6]): 335 µg | LNG Daily Required Dose, 3% Pregnancy Rate (healthy women [2]; [6]): 72 µg | LNG Daily Required Dose, 1.5% Pregnancy Rate (healthy women [2]; [7]): 430 µg | LNG Daily Required Dose, 3% Pregnancy Rate (healthy women [2]; [7]): 26 µg | LNG Daily Required Dose, 1.5% Pregnancy Rate (healthy women [2]; [8]): 390 µg | LNG Daily Required Dose, 3% Pregnancy Rate (healthy women [2]; [8]): 99 µg | LNG Daily Required Dose, 1.5% Pregnancy Rate (healthy women [2]; [9]): 484 µg | LNG Daily Required Dose, 3% Pregnancy Rate (healthy women [2]; [9]): 52 µg | LNG Daily Required Dose, 1.5% Pregnancy Rate (healthy women [2]; [10]): 447 µg | LNG Daily Required Dose, 3% Pregnancy Rate (healthy women [2]; [10]): 127 µg | LNG Daily Required Dose, 1.5% Pregnancy Rate (healthy women [2]; [11]): 541 µg | LNG Daily Required Dose, 3% Pregnancy Rate (healthy women [2]; [11]): 80 µg | LNG Daily Required Dose, 1.5% Pregnancy Rate (healthy women [2]; [12]): 507 µg | LNG Daily Required Dose, 3% Pregnancy Rate (healthy women [2]; [12]): 157 µg | LNG Daily Required Dose, 1.5% Pregnancy Rate (healthy women [2]; [13]): 601 µg | LNG Daily Required Dose, 3% Pregnancy Rate (healthy women [2]; [13]): 110 µg | LNG Daily Required Dose, 1.5% Pregnancy Rate (healthy women [2]; [14]): 569 µg | LNG Daily Required Dose, 3% Pregnancy Rate (healthy women [2]; [14]): 187 µg | LNG Daily Required Dose, 1.5% Pregnancy Rate (healthy women [2]; [15]): 663 µg | LNG Daily Required Dose, 3% Pregnancy Rate (healthy women [2]; [15]): 140 µg | LNG Daily Required Dose, 1.5% Pregnancy Rate (healthy women [2]; [16]): 633 µg | LNG Daily Required Dose, 3% Pregnancy Rate (healthy women [2]; [16]): 219 µg | LNG Daily Required Dose, 1.5% Pregnancy Rate (healthy women [2]; [17]): 728 µg | LNG Daily Required Dose, 3% Pregnancy Rate (healthy women [2]; [17]): 172 µg | Daily LNG Required Dose, 1.5% Pregnancy Rate Dose (healthy women [2]; [18]): 171 µg/day | Daily LNG Required Dose, 3% Pregnancy Rate Dose (healthy women [2]; [18]): 41 µg/day | Daily LNG Required Dose, 1.5% Pregnancy Rate Dose (healthy women [2]; [19]): 215 µg/day | Daily LNG Required Dose, 3% Pregnancy Rate Dose (healthy women [2]; [19]): 19 µg/day | Daily LNG Required Dose, 1.5% Pregnancy Rate Dose (healthy women [2]; [20]): 258 µg/day | Daily LNG Required Dose, 3% Pregnancy Rate Dose (healthy women [2]; [20]): 84 µg/day | Daily LNG Required Dose, 1.5% Pregnancy Rate Dose (healthy women [2]; [21]): 302 µg/day | Daily LNG Required Dose, 3% Pregnancy Rate Dose (healthy women [2]; [21]): 62 µg/day | Daily LNG Required Dose, 1.5% Pregnancy Rate Dose (healthy women [2]; [22]): 331 µg/day | Daily LNG Required Dose, 3% Pregnancy Rate Dose (healthy women [2]; [22]): 120 µg/day | Daily LNG Required Dose, 1.5% Pregnancy Rate Dose (healthy women [2]; [23]): 375 µg/day | Daily LNG Required Dose, 3% Pregnancy Rate Dose (healthy women [2]; [23]): 98 µg/day | Daily LNG Required Dose, 1.5% Pregnancy Rate Dose (healthy women [2]; [24]): 389 µg/day | Daily LNG Required Dose, 3% Pregnancy Rate Dose (healthy women [2]; [24]): 148 µg/day | Daily LNG Required Dose, 1.5% Pregnancy Rate Dose (healthy women [2]; [25]): 433 µg/day | Daily LNG Required Dose, 3% Pregnancy Rate Dose (healthy women [2]; [25]): 126 µg/day | Daily LNG Required Dose, 1.5% Pregnancy Rate Dose (healthy women [2]; [26]): 432 µg/day | Daily LNG Required Dose, 3% Pregnancy Rate Dose (healthy women [2]; [26]): 169 µg/day | Daily LNG Required Dose, 1.5% Pregnancy Rate Dose (healthy women [2]; [27]): 476 µg/day | Daily LNG Required Dose, 3% Pregnancy Rate Dose (healthy women [2]; [27]): 147 µg/day | Daily LNG Required Dose, 1.5% Pregnancy Rate Dose (healthy women [2]; [28]): 459 µg/day | Daily LNG Required Dose, 3% Pregnancy Rate Dose (healthy women [2]; [28]): 183 µg/day | Daily LNG Required Dose, 1.5% Pregnancy Rate Dose (healthy women [2]; [29]): 503 µg/day | Daily LNG Required Dose, 3% Pregnancy Rate Dose (healthy women [2]; [29]): 161 µg/day | Daily LNG Required Dose, 1.5% Pregnancy Rate Dose (healthy women [2]; [30]): 472 µg/day | Daily LNG Required Dose, 3% Pregnancy Rate Dose (healthy women [2]; [30]): 189 µg/day | Daily LNG Required Dose, 1.5% Pregnancy Rate Dose (healthy women [2]; [31]): 516 µg/day | Daily LNG Required Dose, 3% Pregnancy Rate Dose (healthy women [2]; [31]): 167 µg/day | level of LNG equivalent (healthy women [2]; 1.5% pregnancy level): 350 μg per day | level of LNG equivalent (healthy women [2]; 3% pregnancy level): 200 μg per day | increase of free LNG circulating in the plasma ([3]; for every 10 μg per day of EE delivered): 300 picograms per ml | approximate steady state level of LNG ([3]; plasma): ~1500 picograms LNG per ml
